Reference: paper PMC5082902, “Exported Epoxide Hydrolases Modulate Erythrocyte Vasoactive Lipids during Plasmodium falciparum Infection” (mBio, 2016)

Assays:
Assay in all cases: ELISA of […]([…])-DHET diol product
Format in all cases: biochemical
Conditions in all cases: 6 or 12 uM EET, 100 ug enzyme in 100 ul PBS, 37 C, 1.5 h
[1] = biological target: T1, PfEH1 (Plasmodium falciparum, UniProt Q9Y013)
T1 construct: gene PF3D7_0301300; borders of the construct only in supplement

[2] = biological target: T2, PfEH2 (Plasmodium falciparum, UniProt Q8IM75)
T2 construct: gene PF3D7_1401300; borders of the construct only in supplement
T2 sequence (Q8IM75 entry or part of it): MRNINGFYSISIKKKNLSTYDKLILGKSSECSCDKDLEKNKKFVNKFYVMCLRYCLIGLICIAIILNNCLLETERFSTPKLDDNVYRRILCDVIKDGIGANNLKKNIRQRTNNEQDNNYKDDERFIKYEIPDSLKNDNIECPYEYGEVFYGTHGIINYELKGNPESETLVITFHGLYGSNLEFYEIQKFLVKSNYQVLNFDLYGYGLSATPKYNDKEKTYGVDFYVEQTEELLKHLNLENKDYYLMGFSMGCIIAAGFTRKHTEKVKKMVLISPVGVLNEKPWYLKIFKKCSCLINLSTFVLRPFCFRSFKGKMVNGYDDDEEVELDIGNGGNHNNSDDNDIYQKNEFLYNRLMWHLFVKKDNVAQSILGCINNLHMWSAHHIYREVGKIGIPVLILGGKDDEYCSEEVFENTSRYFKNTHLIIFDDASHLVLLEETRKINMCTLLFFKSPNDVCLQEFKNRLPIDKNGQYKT

[3] = biological target: T2, PfEH2; remark: listed apart in the source

T1 sequence (Q9Y013 entry or part of it): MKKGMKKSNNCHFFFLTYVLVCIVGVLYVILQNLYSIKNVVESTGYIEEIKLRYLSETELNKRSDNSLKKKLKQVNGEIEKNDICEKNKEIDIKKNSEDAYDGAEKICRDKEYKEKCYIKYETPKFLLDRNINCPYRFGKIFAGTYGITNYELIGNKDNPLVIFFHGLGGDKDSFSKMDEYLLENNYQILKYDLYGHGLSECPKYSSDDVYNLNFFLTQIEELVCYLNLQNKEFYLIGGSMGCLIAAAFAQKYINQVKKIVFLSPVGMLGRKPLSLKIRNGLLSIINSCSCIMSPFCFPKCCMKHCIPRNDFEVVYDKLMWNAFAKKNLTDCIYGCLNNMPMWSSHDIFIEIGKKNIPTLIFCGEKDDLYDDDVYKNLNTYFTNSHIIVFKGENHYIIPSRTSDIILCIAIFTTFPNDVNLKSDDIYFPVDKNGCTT

Row | SMILES | ELISA of 11(12)-DHET diol product [1] | ELISA of 11(12)-DHET diol product [2] | ELISA of 14(15)-DHET diol product [3]
1 | CCCCC/C=C\CC1OC1C/C=C\C/C=C\CCCC(=O)O (stereo not drawn) [11(12)-EET] | Both recombinant PfEH1 and PfEH2 enzymes increased the formation of the diol product | Both recombinant PfEH1 and PfEH2 enzymes increased the formation of the diol product | 
2 | CCCCCC1OC1C/C=C\C/C=C\C/C=C\CCCC(=O)O (stereo not drawn) [14(15)-EET] |  |  | Both recombinant PfEH1 and PfEH2 enzymes increased the formation of the diol product
